Measurements as given in patent US20050124618A1, “Methods of modulating angiogenesis and cancer cell proliferation” (priority 2003, published 2005).
“Also recorded” adds a separate entry of the source.

How the values were obtained:
20-HETE = details: cited from earlier work
U251 human glioma cells = assay: U251 cell proliferation assay (cell counting); format: cell-based; details: for increase of U251 cell proliferation: 1 μM agonist, 48 hr, serum-starved
Method: Culture Conditions: Cells were routinely maintained in DMEM (Invitrogen) supplemented with 10% heat-inactivated fetal bovine serum (FBS), penicillin (10 IU/ml), streptomycin (10 μg/ml) and 10% non-essential amino acids (all purchased from Invitrogen). Cells were maintained at 37° C. in a humidified incubator containing 5% CO2. They were grown in medium containing 10% FBS, which was then replaced with serum-free medium where U251 cells grow exponentially. Treatments were initiated one day after serum removal.
Cell Proliferation Assays: Proliferation studies were performed with cultures plated at a density that ensured exponential growth for at least 5 days. Growth medium was generally replaced by serum-free medium 24 hr after plating. Cells were treated with various concentrations of a given compounds for 24 or 48 hr as described in the Methods. […] Organic solvent never exceeded 0.1% of total culture volume. Cells were harvested by exposure to 0.05% trypsin/EDTA and counted using a hemocytometer.

9L rat gliosarcoma cells = assay: 9L cell proliferation assay (cell counting); format: cell-based
Method: Culture Conditions: 9L rat gliosarcoma cells were purchased from ATC (Gaithersburg, Md.) and were maintained in DMEM (Invitrogen) supplemented with 10% heat-inactivated fetal bovine serum (FBS), penicillin (10 IU/ml), streptomycin (10 μg/ml) and 10% non-essential amino acids (all purchased from Invitrogen). Cells were maintained at 37° C. in a humidified incubator containing 5% CO2. They were grown in medium containing 10% FBS, which was then replaced with serum-free medium (give type and source) where 9L cells grow exponentially.
Cell Proliferation Assays: Proliferation studies were performed with cultures plated at a density that ensured exponential growth for at least 5 days. Growth medium were generally replaced by serum free medium 24 hr after plating. […] The concentration of the ethanol added to the media never exceeded 0.1%. Cells were harvested by exposure to a solution of 0.05% Trypsin/EDTA and counted using a hemocytometer.

HUVECs = HUVECs proliferation assay (CellTiter96 AQueous One); format: cell-based, human
Method: HUVECs were seeded onto a 96-well plate at 1×10^4 cells/well. […] Organic solvent concentration never exceeded 0.1% of total culture volume. […] 20 μl of Aqueous One reagent was added to the 100 μl medium in each well. The plates were incubated for 2 hours at 37° C. in a humidified incubator. Absorbance was recorded at 490 nm using a 96-well Bio Kinetics Reader EL340 (Bio-TEK, Winooski, Vt.). The data represent changes in percent absorbance of treated cultures compared with control cells. Three different experiments were carried out, and each point was determined in triplicate.

rat cornea = assay: Rat cornea pocket angiogenesis assay (growth factor pellets); format: in vivo; details: for angiogenic response to growth factor alone: 250 ng growth factor per pellet
Method: (i) Preparation of sustained-release polymer: Sustained-release polymer pellets were prepared by making a 1:1 mix of a 12% solution in ethanol of the polymer (Hydron polyhydroxyethylmethacrylate), with saline containing the growth factors. The growth factors bFGF, VEGF, and EGF were dissolved at a concentration of 125 ng/μl. […] 2 μl of these solutions were added to each pellet. Thus, a pellet containing 250 ng of a single growth factor was implanted at random in the right or left eye. The other eye was implanted with a pellet containing the same dose of growth factor+HET0016. In some rats the pellet contained VEGF alone and VEGF+DDMS. 20 μg of the stable 20-HETE agonist analog WIT003 was implanted in one eye to determine whether it induces angiogenesis. […] 9 μl of the 1:1 Hydron/treatment mixture was placed on the ends of 1.5-cm rods. Each pellet contained 250 ng of its respective growth factor. For bFGF we used sucralfate to stabilize and allow sustained release of this growth factor (Volkin D B et al., Biochim Biophys Acta 1993, 1203:18-26). After drying the pellets for 1 hour, they were ready to be implanted into the cornea of rats.
(ii) Pellet implantation: The rats were anesthetized IM with ketamine (80 mg/kg) and xylazine (10 mg/kg). The eyes were topically anesthetized with 0.5% proparacaine (Ophthetic, Alcon, Tex.) and the globes proptosed with a jeweler's forceps. Using an operating microscope, a central intrastromal linear keratotomy, approximately 1.5 mm in length, was performed with a surgical blade (Bard-Parker #11; Becton Dickinson, Franklin Lake, N.Y.) parallel to the insertion of the lateral rectus muscle. A curved iris spatula (No. 10093-13, Fine Science Tools, Belmont, Calif.) approximately 1.5 mm wide and 5 mm long was inserted under the lip of the incision and gently pushed through the stroma toward the temporal limbus of the eye. The distance between the limbus and the base of the pocket was kept at 1.0±0.1 mm. The pellet was advanced to the temporal end of the pocket. Antibiotic ointment (erythromycin) was applied to the anterior surface of the eye.
(iv) Quantitation of corneal neovascularization: Seven days after pellet implantation, the rats were deeply anesthetized as previously described with ketamine and xylazine. The left ventricle was cannulated and the animal was perfused with 20-25 ml saline through the left ventricle followed by 20-25 ml India ink (waterproof drawing ink, Sanford, Bellwood, Ill.). The eyes were marked for orientation, enucleated and placed in 4% formalin for 24 hours. The cornea was dissected free from the surrounding globe and underlying iris, bisected, and loosely mounted between two glass slides, thus gently flattening the cornea. These flat mounts were examined microscopically using a Nikon Diaphot Epi-fluor 2 microscope attached to a CCD video camera and the images were digitized and saved using a computer.
Neovascularization was determined by comparing total vessel length in the control and experimental eyes. Vessel length was determined by tracing each vessel from the limbus to the pellet. Total length is the sum of these values in pixels and was determined using conventional image analysis software (Sigma Scan Pro, SPSS, Chicago, Ill.)

[1] = up to 40 μg palmitic acid per pellet

In the case of `C#CCCCCCCCCCCCCCCCC(=O)O` [17-ODYA, 17-Octadecynoic acid], the “ability to reduce 20-HETE levels in vivo” value (20-HETE) is listed as “reduce 20-HETE levels in vivo”.

With `O=C(O)CCC/C=C\CCCCCCC/C=C\CCCCCO` [20-hydroxyeicosa-5(Z),14(Z)-dienoic acid] the “reversal of HET0016 blockade of U251 cell proliferation” value (U251 human glioma cells; 1 μM 20-HETE agonist + HET0016) was “about 70%” and the “increase of U251 cell proliferation” value (U251 human glioma cells) was “about 20%”.

In the case of `O=C(O)CCCC/C=C\CCCCCCC/C=C\CCCCO` [WIT003, 20-hydroxyeicosa-6(Z),15(Z)-dienoic acid], the “stimulation of 9L proliferation compared with EGF” value (9L rat gliosarcoma cells; 1 μM WIT003) was “A similar degree of stimulation”, the “rescue of 9L cells from the inhibitory actions of HET0016” value (9L rat gliosarcoma cells; 1 μM WIT003 + 10 μM HET0016) was “partially rescued” and the “stimulatory effect on proliferation of U251 cells” value (U251 human glioma cells; 0.1 μM WIT003, 48 hr) was “has no more stimulatory effect on proliferation of U251 cells than 50 ng/ml EGF”. The “rescue of U251 cells from the anti-proliferative effects of HET0016” value (U251 human glioma cells; 1 μM WIT003 + 10 μM HET0016, 48 h) was “reverses the effects of HET0016; also recorded: can rescue”, the “U251 proliferation with WIT003 and HET0016, increase above HET0016 alone” value (U251 human glioma cells; 1 μM WIT003 + 10 μM HET0016, 2 days) was “about 70%” and the “U251 growth stimulation compared with EGF” value (U251 human glioma cells; 1 μM WIT003, 48 h) was “comparable to the growth stimulating effect induced by 200 ng/ml EGF; also recorded: as much as 200 ng/ml EGF”. For the same compound, the “increase of U251 cell proliferation” value (U251 human glioma cells) was 20%, the “effect on proliferation of HUVECs” value (HUVECs; 1 μM WIT003, 48 hours) was “increased the proliferation rate; also recorded: increased proliferation of the cells” and the “angiogenic response to the 20-HETE analog alone” value (rat cornea; 20 μg WIT003 per pellet, 7 days) was “induced an angiogenic response”.

For `CCCCCCCCCCCCCCCC(=O)O` [palmitic acid], the “angiogenic effect of fatty acid control alone” value (rat cornea; [1]) was “had no effect by itself”, the “influence of fatty acid control on angiogenic responses to VEGF” value (rat cornea; [1]) was “no difference in angiogenic responses to VEGF” and the “influence of fatty acid control on angiogenic responses to VEGF” value (rat cornea; up to 40 μg palmitic acid per pellet, listed as Palmitic acid) was “showed no ability to influence angiogenic responses to VEGF”.

With “EGF: epidermal growth factor, positive control for proliferation” the “increase of proliferation of 9L cells” value (9L rat gliosarcoma cells; EGF 200 ng/ml) was “about 30%”, the “effect on number of 9L cells” value (9L rat gliosarcoma cells; EGF 200 ng/ml, 24 and 48 hrs) was “increased the number of cells” and the “angiogenic response to growth factor alone” value (rat cornea) was “Vigorous angiogenic responses”.

With VEGF the “effect on proliferation of HUVECs” value (HUVECs; 250 ng/ml VEGF alone) was “stimulated proliferation” and the “angiogenic response to growth factor alone” value (rat cornea) was “marked neovascularization response; also recorded: Vigorous angiogenic responses”.

In the case of “bFGF: basic fibroblast growth factor, purchased from R&D Systems”, the “angiogenic response to growth factor alone” value (rat cornea) was “Vigorous angiogenic responses”.
